Our source for the Kd values is patent US12552837B2, “Bicyclic peptide ligands with detectable moieties and uses thereof” (BicycleRD Limited, priority 2017, dated 2026).

Each structure is given as a SMILES string. *1 amine or outer side, *2 acyl side, *3 side chain or, on linkers, in order; H or OH if unused. Where a SMILES comes first, the peptide text is derived from it. Bridges are numbered along the chain shown (N, C = ends). [ ]: non-standard residue; d: D form. The star is where a group is joined. DOTA = O=C(O)CN1CCN(CC(=O)O)CCN(CC(=O)*)CCN(CC(=O)O)CC1; 1Nal = N[C@@H](Cc1cccc2ccccc12)C(=O)O; TBMB = c1c(C[*:1])cc(C[*:3])cc1C[*:2]; Tle = CC(C)(C)[C@H](N)C(=O)O

The target of this test is MT1-MMP hemopexin domain (Homo sapiens, UniProt P50281). Briefly: Fluorescence polarization direct binding / competition assay to MT1-MMP hemopexin domain. As to the method:
Direct Binding Fluorescence Polarization or Anisotropy Assays are performed by titrating a constant concentration of fluorescent tracer (here, the fluoresceinated bicyclic peptide to be studied) with its binding partner (here, the MT1-MMP hemopexin domain). As the concentration of binding partner increases during the titration, the polarization signal changes in proportion to the fraction of bound and unbound material. This allows determination of […] (Kd) quantitatively. Assay data can be fit using standard ligand binding equations.
Typically, concentrations of the tracer are ideally well below the Kd of the tracer: titrant pair, and concentrations chosen are usually at ˜1 nM or less. The titrant (binding partner) concentration is varied from 0.1 nM up to typically 5 μM. The range is chosen such that the maximum change in fluorescent polarization can be observed. Buffers employed are phosphate buffered saline in the presence of 0.01% Tween. Experiments were run in black 384 well low-bind/low volume plates (Corning 3820), and the fluorescent polarization signal was measured using a BMG Pherastar FS plate reader. Fluorescent tracers referred to in the text are bicyclic peptides that have been fluoresceinated using 5,6-carboxyfluorescein. Fluoresceination may be performed on the N-terminal amino group of the peptide, which is separated from the bicycle core sequence by a sarcosine spacer (usually Sar10 (SEQ ID NO: 73)). This can be done during Fmoc solid phase synthesis or post-synthetically (after cyclization with the molecular scaffold reagent and purification) if the N-terminal amino group is unique to the peptide. Fluoresceination can also be performed on the C-terminus, usually on a Lysine introduced as the first C-terminal residue, which is then separated from the bicycle core sequence by a sarcosine spacer (usually Sar6 (SEQ ID NO: 69)). Thus, N-terminal tracers can have a molecular format described as Fluo-Ala-Sar10-A (SEQ ID NO: 72) (BicycleCoreSequence), and (BicycleCoreSequence)-A-Sar6-K (Fluo) (SEQ ID NO: 67) for a C-terminally fluoresceinated construct.
Fluorescent tracers used in the Examples are A-(17-69)-A-Sar6-K (Fluo) (SEQ ID NO: 67), A-(17-69-07)-A-Sar6-K (Fluo) (SEQ ID NO: 67), and A-(17-69-12)-A-Sar6-K (Fluo) (SEQ ID NO: 67). Due to the acidic nature of the 17-69 fluorescent peptides, they were typically prepared as concentrated DMSO stocks, from which dilution were prepared in 100 mM Tris pH 8 buffer.
Due to their high affinities to the MT1-MMP Hemopexin domain (PEX), the fluoresceinated derivatives of 17-69-07 and 17-69-12 (denoted as 17-69-07-N040 and 17-69-12-N005, respectively) can be used for competition experiments (using FP for detection). […] Dissociation of the complex can be measured quantitatively, and the Kd of the competitor (titrant) to the target protein determined. The advantage of the competition method is that the affinities of non-fluoresceinated bicyclic peptides can be determined accurately and rapidly.
Subsequently, the non-fluorescent competitor bicyclic peptide (usually just the bicycle core sequence) is titrated, such that it displaces the fluorescent tracer from the target protein. The displacement of the tracer is measured and associated with a drop in fluorescence polarization. The drop in fluorescence polarization is proportional to the fraction of target protein bound with the non-fluorescent titrant, and thus is a measure of the affinity of titrant to target protein. […]
On the technique in general: Fluorescence polarisation rises when a labelled molecule tumbles more slowly, as on binding a larger partner.

In the case of `C[C@H](NC(=O)CN1CCN(CC(=O)O)CCN(CC(=O)O)CCN(CC(=O)O)CC1)C(=O)N[C@H]1CSCc2cc3cc(c2)CSC[C@H](NC(=O)[C@@H](C)NC(=O)[C@H](Cc2cccc4ccccc24)NC(=O)[C@H](CCC(=O)O)NC(=O)[C@H](CC(N)=O)NC(=O)[C@@H](C)NC1=O)C(=O)N[C@@H](CCC(=O)O)C(=O)N[C@@H](CC(=O)O)C(=O)N[C@@H](Cc1ccccc1)C(=O)N[C@@H](Cc1ccc(O)cc1)C(=O)N[C@@H](CC(=O)O)C(=O)N[C@@H](C(C)(C)C)C(=O)N[C@H](C(N)=O)CSC3` [I-23] ({DOTA}-AC[dA]NE[1Nal][dA]CEDFYD[Tle]C-NH2; linker 2-8-15 via TBMB), the affinity, expressed as Kd, was 520 ± 240 pM.
